From patent US20240199605A1, “SMALL MOLECULAR INHIBITORS OF NF-kB INDUCING KINASE” (Janssen Pharmaceutica NV, priority 2019, published 2024)

Experiments:
[1] = test system: p-IKKα levels in L363 (NIK translocated multiple myeloma) cells; assay: Effect of compounds on p-IKKα levels in L363 cells (AlphaLISA SureFire Ultra); assay type: cell-based, human; conditions: Homo sapiens, L-363, 6 h, BAFF stimulated, MG132, 6 h, average of values, read-out: Assay 2 IC50
Method in brief: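 Inhibition of p-IKKα (Ser176/180) read by AlphaLISA after 6 h, 37 °C compound exposure (11-point 1:3 series, 0.3% DMSO) of L363 cells pre-incubated overnight ± 250 ng/ml BAFF and plated ± BAFF ± 10 μM MG132. Normalised to BAFF/MG132/DMSO and unstimulated controls; IC50 by sigmoidal fitting, duplicates.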

[2] = target: recombinant human NF-kappaB-inducing kinase (NIK/MAP3K14) (Homo sapiens (Human), UniProt Q99558); assay: Inhibition of auto-phosphorylation of recombinant human NIK/MAP3K14 (AlphaScreen); assay type: biochemical; conditions: NIK auto-phosphorylation, 5 μM ATP, 1 nM NIK, 2 h at 25° C.; average of values
Method in brief: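 GST-tagged NIK (1 nM) auto-phosphorylated with 5 μM ATP for 2 h at 25° C. in 50 mM Tris pH 7.5, 5 mM MgCl2, 1 mM EGTA, 1 mM DTT, 0.1 mM Na3VO4, 0.01% Tween 20 (0.7% DMSO). Detected by AlphaScreen via anti-phospho-IKK Ser176/180 antibody; IC50 from sigmoidal fit of % inhibition versus log concentration.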

Sequence of recombinant human NF-kappaB-inducing kinase (NIK/MAP3K14) (Q99558 whole entry): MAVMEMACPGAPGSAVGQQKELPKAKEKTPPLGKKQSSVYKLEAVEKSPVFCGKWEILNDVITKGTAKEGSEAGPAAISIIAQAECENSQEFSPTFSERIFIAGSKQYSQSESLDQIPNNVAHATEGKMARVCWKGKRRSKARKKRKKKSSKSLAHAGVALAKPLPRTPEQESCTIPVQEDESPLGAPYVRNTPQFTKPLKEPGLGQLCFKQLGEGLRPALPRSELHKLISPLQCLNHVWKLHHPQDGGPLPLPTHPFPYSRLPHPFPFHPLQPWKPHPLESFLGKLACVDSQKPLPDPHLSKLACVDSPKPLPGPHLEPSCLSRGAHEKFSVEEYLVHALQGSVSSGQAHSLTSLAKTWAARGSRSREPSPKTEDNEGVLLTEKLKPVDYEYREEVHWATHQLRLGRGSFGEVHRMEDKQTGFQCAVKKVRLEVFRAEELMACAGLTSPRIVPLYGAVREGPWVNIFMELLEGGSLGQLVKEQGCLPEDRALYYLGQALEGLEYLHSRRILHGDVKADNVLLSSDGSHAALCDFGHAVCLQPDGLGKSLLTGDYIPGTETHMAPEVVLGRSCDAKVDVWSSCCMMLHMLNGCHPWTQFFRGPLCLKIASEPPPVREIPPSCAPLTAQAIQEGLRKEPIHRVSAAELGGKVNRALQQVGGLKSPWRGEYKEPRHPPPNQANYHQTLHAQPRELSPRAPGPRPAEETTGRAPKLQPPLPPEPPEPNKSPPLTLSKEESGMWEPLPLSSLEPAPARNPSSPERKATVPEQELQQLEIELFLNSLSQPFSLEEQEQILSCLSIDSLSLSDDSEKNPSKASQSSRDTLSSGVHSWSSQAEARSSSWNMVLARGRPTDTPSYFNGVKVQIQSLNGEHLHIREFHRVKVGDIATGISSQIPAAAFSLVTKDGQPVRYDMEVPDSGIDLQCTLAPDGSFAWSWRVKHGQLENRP

| SMILES | IC50 [1] [nM] | IC50 [2] [nM] |
| --- | --- | --- |
| [2H]c1nc(N)c2nc(-c3cc(C#C[C@]4(O)CCN(C)C4=O)ccc3OC)ccc2n1 [Example 160, (R)-3-((3-(4-Aminopyrido[3,2-d]pyrimidin-6-yl-2-d)-4-methoxyphenyl)ethynyl)-3-hydroxy-1-methylpyrrolidin-2-one] | 19 | 2.4 |
| CC(C)(O)C#Cc1cccc(-c2ncc3ccnc(N)c3n2)c1 [Example 35, 4-[3-(8-Aminopyrido[3,4-d]pyrimidin-2-yl)phenyl]-2-methyl-but-3-yn-2-ol] | 700 | 15 |
| [2H]c1nc(N)c2nc(-c3cccc(C#C[C@]4(O)CCN(C)C4=O)c3)cc(C3CCCC3)c2n1 [Example 277, (R)-3-((3-(4-Amino-8-cyclopentylpyrido[3,2-d]pyrimidin-6-yl-2-d)phenyl)ethynyl)-3-hydroxy-1-methylpyrrolidin-2-one] | 13 | 0.7 |
| CN(C)Cc1cnc(N)c2nc(-c3cccc(C#C[C@]4(O)CCN(C)C4=O)c3)ncc12 [Example 135, (R)-3-[2-[3-[8-Amino-5-(dimethylaminomethyl)pyrido[3,4-d]pyrimidin-2-yl]phenyl]ethynyl]-3-hydroxy-1-methyl-pyrrolidin-2-one] | 140 | 5.7 |
| Cc1nc(N)c2nc(-c3cccc(C#C[C@](C)(O)c4cnc(C)s4)c3)ccc2n1 [Example 157, (S)-4-(3-(4-Amino-2-methylpyrido[3,2-d]pyrimidin-6-yl)phenyl)-2-(2-methylthiazol-5-yl)but-3-yn-2-ol] | > 5000 | 3790 |
| Cc1nc(N)c2nc(-c3cccc(C#C[C@]4(O)CCN(C)C4=O)c3)ncc2n1 [Example 14, (R)-3-((3-(8-Amino-6-methylpyrimido[5,4-d]pyrimidin-2-yl)phenyl)ethynyl)-3-hydroxy-1-methylpyrrolidin-2-one] | 18 | ≤ 0.5 |
| CC1(C)CC[C@@](O)(C#Cc2cccc(-c3ccc4ncnc(N)c4n3)c2)C1=O [Example 131, (R)-2-[2-[3-(4-Aminopyrido[3,2-d]pyrimidin-6-yl)phenyl]ethynyl]-2-hydroxy-5,5-dimethyl-cyclopentanone] | 47 | ≤ 0.5 |
| CNC(=O)C1CN(c2ncnc3ccc(-c4cccc(C#C[C@]5(O)CCN(C)C5=O)c4)nc23)C1 [Example 246, (R)-1-(6-(3-((3-Hydroxy-1-methyl-2-oxopyrrolidin-3-yl)ethynyl)phenyl)pyrido[3,2-d]pyrimidin-4-yl)-N-methylazetidine-3-carboxamide] | 3790 | 23 |
| Cc1ccc(C#C[C@]2(O)CCN(C)C2=O)cc1N1CCc2ncnc(N)c2C1 [Example 220, (R)-3-((3-(4-Amino-7,8-dihydropyrido[4,3-d]pyrimidin-6(5H)-yl)-4-methylphenyl)ethynyl)-3-hydroxy-1-methylpyrrolidin-2-one] | 65 | 1.3 |
| Cc1ccc(C#C[C@]2(O)CCc3cccnc32)cc1-c1nc2c(N)ncnc2s1 [Example 184, (R)-7-[2-[3-(7-Aminothiazolo[5,4-d]pyrimidin-2-yl)-4-methyl-phenyl]ethynyl]-5,6-dihydrocyclopenta[b]pyridin-7-ol] | 9.9 | ≤ 0.5 |
| Cc1cc2cnc(-c3cccc(C#C[C@@](C)(O)c4nccs4)c3)nc2c(N)n1 [Example 51, (R)-4-(3-(8-Amino-6-methylpyrido[3,4-d]pyrimidin-2-yl)phenyl)-2-(thiazol-2-yl)but-3-yn-2-ol] | 480 | 1 |
| CN1CC[C@@](O)(C#Cc2cccc(-c3ccc4ncnc(N5CC(C#N)C5)c4n3)c2)C1=O [Example 242, (R)-1-(6-(3-((3-Hydroxy-1-methyl-2-oxopyrrolidin-3-yl)ethynyl)phenyl)pyrido[3,2-d]pyrimidin-4-yl)azetidine-3-carbonitrile] | 320 | 7.4 |
| Cc1nc(N)c2nc(-c3cccc(C#C[C@@]4(O)CCCN(C)C4=O)c3)ccc2n1 [Example 186, (S)-3-((3-(4-Amino-2-methylpyrido[3,2-d]pyrimidin-6-yl)phenyl)ethynyl)-3-hydroxy-1-methylpiperidin-2-one] | > 5000 | 710 |
